According to ChEMBL document CHEMBL1201862, “PubChem BioAssay data set” (2004):
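1) Cells in 96-well plates. 2) Compound, 48 h, 5 concentrations. 3) Linear interpolation between surrounding doses. 4) Unreached endpoint = highest concentration. GI50 is the concentration that inhibits growth by half.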 The source made the active and inactive calls. Cut-off read from the data, not from the text of the source: active = GI50 up to about 1.1 µM and inactive = higher.

What was measured:
Assay in all cases: NCI tumour cell line growth inhibition, 48 h
NCI-H460 = test system: NCI-H460
SF-268 = test system: SF-268
OVCAR-4 = test system: OVCAR-4
OVCAR-3 = test system: OVCAR-3
786-0 = test system: 786-0
HCT-116 = test system: HCT-116
MDA-MB-231 = test system: MDA-MB-231
SK-MEL-2 = test system: SK-MEL-2
HOP-62 = test system: HOP-62
EKVX = test system: EKVX
SF-295 = test system: SF-295
A498 = test system: A498
UO-31 = test system: UO-31
M14 = test system: M14
COLO 205 = test system: COLO 205
KM12 = test system: KM12
SNB-19 = test system: SNB-19
CAKI-1 = test system: CAKI-1
OVCAR-5 = test system: OVCAR-5
HCC 2998 = test system: HCC 2998

Row | Structure (SMILES) | GI50 (NCI-H460) | GI50 (SF-268) | GI50 (OVCAR-4) | GI50 (OVCAR-3) | GI50 (786-0) | GI50 (HCT-116) | GI50 (MDA-MB-231) | GI50 (SK-MEL-2) | GI50 (HOP-62) | GI50 (EKVX) | GI50 (SF-295) | GI50 (A498) | GI50 (UO-31) | GI50 (M14) | GI50 (COLO 205) | GI50 (KM12) | GI50 (SNB-19) | GI50 (CAKI-1) | GI50 (OVCAR-5) | GI50 (HCC 2998)
1 | CN(CC(=O)O)Cc1c[nH]c2ccccc12 | > 100 µM (inactive) | > 100 µM (inactive) | > 100 µM (inactive) | > 100 µM (inactive) | > 100 µM (inactive) | > 100 µM (inactive) | > 100 µM (inactive) | > 100 µM (inactive) | > 100 µM (inactive) | > 100 µM (inactive) | > 100 µM (inactive) | > 100 µM (inactive) | > 100 µM (inactive) | > 100 µM (inactive) | > 100 µM (inactive) | > 100 µM (inactive) | > 100 µM (inactive) | > 100 µM (inactive) | > 100 µM (inactive) | 
2 | O=C(c1no[n+]([O-])c1C(=O)c1csc2ccccc12)c1csc2ccccc12 | 13.2 µM (inactive) | 6.27 µM (inactive) | 2.86 µM (inactive) | 1.86 µM (inactive) | 0.27 µM (active) | 8.85 µM (inactive) | 5.64 µM (inactive) | 6.68 µM (inactive) | 9.33 µM (inactive) | 3.55 µM (inactive) | 14.6 µM (inactive) | 15 µM (inactive) | 0.505 µM (active) | 9.04 µM (inactive) | 3.06 µM (inactive) | 6.95 µM (inactive) | 16.9 µM (inactive) | 0.82 µM (active) | 18.3 µM (inactive) | 4.6 µM (inactive)
3 | CC(=O)c1c(SCCN2CCOCC2)n(-c2ccccc2)c(=S)n(-c2ccccc2)c1=O | 24.4 µM (inactive) | 20.2 µM (inactive) | > 46.2 µM (inactive) | 14.8 µM (inactive) | 11.5 µM (inactive) | 16.1 µM (inactive) | 19.1 µM (inactive) | 20.2 µM (inactive) | 26.2 µM (inactive) | 48.2 µM (inactive) | > 62.7 µM (inactive) | 11.5 µM (inactive) | 14.1 µM (inactive) | 16.1 µM (inactive) | 21.5 µM (inactive) | > 39.7 µM (inactive) | > 40.9 µM (inactive) | 24.3 µM (inactive) | > 100 µM (inactive) | 14.3 µM (inactive)
4 | CC(C)c1ccc(/C=C2/C=C(c3ccc4ccccc4c3)OC2=O)cc1 | > 78.2 µM (inactive) | > 100 µM (inactive) | > 100 µM (inactive) | 60 µM (inactive) | > 100 µM (inactive) | 68.4 µM (inactive) | 99.8 µM (inactive) | 19.5 µM (inactive) | > 100 µM (inactive) | 40 µM (inactive) | > 94.6 µM (inactive) | > 96.2 µM (inactive) | > 76.2 µM (inactive) | 41 µM (inactive) | 27.9 µM (inactive) | 62.1 µM (inactive) | > 100 µM (inactive) | > 82.4 µM (inactive) | > 100 µM (inactive) | > 100 µM (inactive)
5 | C/C(=N/NC(=S)N1CCCCCC1)c1cccc(/C(C)=N\NC(=S)N2CCCCCC2)n1 | 2.55 µM (inactive) | 2.51 µM (inactive) | 1.01 µM (active) | 1.01 µM (active) | 1.3 µM (inactive) | 1.66 µM (inactive) | 1.7 µM (inactive) | 1.67 µM (inactive) | 1.89 µM (inactive) | 3.13 µM (inactive) | 1.89 µM (inactive) | 1.49 µM (inactive) | 1.37 µM (inactive) | 1.71 µM (inactive) | 1.47 µM (inactive) | 1.63 µM (inactive) | 3.27 µM (inactive) |  | 2.24 µM (inactive) | 2.27 µM (inactive)
6 | O=C(c1ccccc1)c1ccc(N2C(=O)/C(=C/c3ccccc3S)N=C2c2ccccc2)c(N2C(=O)/C(=C/c3ccccc3S)N=C2c2ccccc2)c1 | 47.6 µM (inactive) | 39.9 µM (inactive) | 38.3 µM (inactive) | 20.1 µM (inactive) | > 100 µM (inactive) | 66.4 µM (inactive) | > 100 µM (inactive) | 22.7 µM (inactive) | 40.7 µM (inactive) | > 100 µM (inactive) | 46.6 µM (inactive) | 60.7 µM (inactive) | 84.5 µM (inactive) | 38.2 µM (inactive) | 60.1 µM (inactive) | 33.3 µM (inactive) | 41.5 µM (inactive) | > 100 µM (inactive) | > 100 µM (inactive) | 35.7 µM (inactive)
7 | Nc1cccc(/C=C/CN2CCN(CCOC(c3ccccc3)c3ccccc3)CC2)c1 | 13.6 µM (inactive) | 17.7 µM (inactive) | 13.2 µM (inactive) | 15.6 µM (inactive) | 14.8 µM (inactive) | 12.5 µM (inactive) | 15 µM (inactive) | 17.7 µM (inactive) | 13.8 µM (inactive) | 16.4 µM (inactive) | 17.4 µM (inactive) | 18 µM (inactive) | 13.6 µM (inactive) | 12.8 µM (inactive) | 6.03 µM (inactive) | 11.2 µM (inactive) | 15.7 µM (inactive) | 19.8 µM (inactive) | 16 µM (inactive) | 3.52 µM (inactive)
8 | CCCCCCCCCCCCNC(C)=O | 17.7 µM (inactive) | 14.3 µM (inactive) |  | 17.7 µM (inactive) | 16.8 µM (inactive) | 17.9 µM (inactive) | 13.8 µM (inactive) | 14.8 µM (inactive) | 14.3 µM (inactive) | 11.4 µM (inactive) | 17.7 µM (inactive) | 20 µM (inactive) | 20 µM (inactive) | 17 µM (inactive) | 17.7 µM (inactive) | 17.8 µM (inactive) | 16.3 µM (inactive) | 17 µM (inactive) |  | 17.5 µM (inactive)
9 | CC(C)(CO)CNc1nc(N)nc(Cl)c1C=O | 36.4 µM (inactive) | 14 µM (inactive) | 36.1 µM (inactive) | 25.6 µM (inactive) | 79.3 µM (inactive) | 20 µM (inactive) | 30.1 µM (inactive) | 16.8 µM (inactive) | 23.2 µM (inactive) | 45.9 µM (inactive) | 42.4 µM (inactive) | > 100 µM (inactive) | 62.1 µM (inactive) |  | 25.5 µM (inactive) | 90.4 µM (inactive) |  | 11.9 µM (inactive) | > 100 µM (inactive) | 4.51 µM (inactive)
10 | Cc1cc2c(c(O)c1-c1c(C)cc(O)c3c1C(=O)C=CC3=O)C(=O)C=CC2=O | 6.43 µM (inactive) | 1.92 µM (inactive) | 3 µM (inactive) | 2.08 µM (inactive) | 1.16 µM (inactive) | 1.21 µM (inactive) | 2 µM (inactive) | 10 µM (inactive) | 20.3 µM (inactive) | 1.59 µM (inactive) | 16.7 µM (inactive) | 6.76 µM (inactive) | 1.63 µM (inactive) | 2.18 µM (inactive) | 0.279 µM (active) | 10.3 µM (inactive) | 18 µM (inactive) | 0.631 µM (active) | 2.62 µM (inactive) | 3.13 µM (inactive)
11 | CC(C#N)(NO)C(C)(C#N)NO (stereo not given) | > 100 µM (inactive) | > 100 µM (inactive) | > 100 µM (inactive) | > 100 µM (inactive) | > 100 µM (inactive) | > 100 µM (inactive) | > 100 µM (inactive) | > 100 µM (inactive) |  | > 100 µM (inactive) |  | > 100 µM (inactive) | > 100 µM (inactive) | > 100 µM (inactive) | 81.1 µM (inactive) | > 100 µM (inactive) | > 100 µM (inactive) | > 100 µM (inactive) | > 100 µM (inactive) | > 100 µM (inactive)
12 | Cc1cc(C)n(C(=O)CSc2nc3ccc(I)cc3c(=O)n2Cc2ccccc2)n1 | 36.4 µM (inactive) | 17.3 µM (inactive) | 35.1 µM (inactive) | 58.6 µM (inactive) | 28.3 µM (inactive) | 57 µM (inactive) | 23.3 µM (inactive) | 47.4 µM (inactive) | 31.9 µM (inactive) | 24 µM (inactive) | 29.8 µM (inactive) | 22.9 µM (inactive) |  | 97.1 µM (inactive) | 59.7 µM (inactive) | 50.2 µM (inactive) | 43.1 µM (inactive) | 4.63 µM (inactive) | > 100 µM (inactive) | 68.4 µM (inactive)
13 | COC1=C2CC(C)CC(OC)[C@@H](OC(=O)CCN)[C@H](C)/C=C(\C)C(OC(N)=O)C(OC)/C=C\C=C(/C)C(=O)NC(=CC1=O)C2=O (stereo not given in full) | 11.1 µM (inactive) | 9.06 µM (inactive) | 3.03 µM (inactive) | 0.843 µM (active) | 1.05 µM (active) | 1.82 µM (inactive) | 1.99 µM (inactive) | 9.06 µM (inactive) | 6.38 µM (inactive) | 12 µM (inactive) | 16.5 µM (inactive) | 17.3 µM (inactive) | 4.54 µM (inactive) | 4.88 µM (inactive) | 0.27 µM (active) | 2.64 µM (inactive) | 7.57 µM (inactive) | 4.6 µM (inactive) | 8.57 µM (inactive) | 1.91 µM (inactive)
14 | Oc1ccc(-c2nc3ccccc3s2)cc1 | 38.1 µM (inactive) | 31.5 µM (inactive) | 48.1 µM (inactive) | 34.5 µM (inactive) | 27.1 µM (inactive) | 22.4 µM (inactive) | 29.2 µM (inactive) | 20.4 µM (inactive) | 37 µM (inactive) | 21.5 µM (inactive) | 37.5 µM (inactive) | 47.4 µM (inactive) | 51.5 µM (inactive) | 44.2 µM (inactive) | 45.1 µM (inactive) | 21.1 µM (inactive) | 55.1 µM (inactive) | 29.2 µM (inactive) | 49.8 µM (inactive) | 
